Assay results reported in patent US20230278972A1, “SUBSTITUTED HALOALKYL SULFONANILIDE HERBICIDES” (FMC Corporation, priority 2020, published 2023).

Key:
Assay type in all cases: in vivo
soybean (Glycine max) = experiment: Test A1 preemergence, soybean
Method in brief: (§1)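 Seeds were first planted into a blend of loam soil and sand and given a preemergence directed soil spray. In parallel, pots of the same soil were sown for postemergence application once plants reached 2 to 10 cm and the one- to two-leaf stage. Both used surfactant-containing non-phytotoxic solvent formulations.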

[1] = tested on: Oat, Wild (wild oat, Avena fatua); experiment: Test A1 preemergence, Oat, Wild
Method in brief: as §1

[2] = tested on: Pigweed, Palmer (palmer amaranth, palmer pigweed, Amaranthus palmeri); experiment: Test A1 preemergence, Pigweed, Palmer
Method in brief: as §1

[3] = tested on: barnyardgrass (Echinochloa crus-galli); experiment: Test B1 flooded paddy test, barnyardgrass; conditions: 250 g ai/ha, Flood, applied to paddy water, 2-leaf stage, visually evaluated after 10 to 14 days
Description: (§2) A dash (-) response means no test result.

corn (Zea mays) = experiment: Test A1 postemergence, corn; conditions: Postemergence
Method in brief: as §1

[4] = tested on: goosegrass (Eleusine indica); experiment: Test A1 preemergence, goosegrass
Method in brief: as §1

[5] = tested on: Foxtail, Giant (giant foxtail, Setaria faberi); experiment: Test A1 preemergence, Foxtail, Giant
Method in brief: as §1

[6] = tested on: ducksalad (Heteranthera limosa); experiment: Test B1 flooded paddy test, ducksalad; conditions: 250 g ai/ha, Flood, applied to paddy water, 2-leaf stage, visually evaluated after 10 to 14 days
Description: as §2

[7] = tested on: blackgrass (Alopecurus myosuroides); experiment: Test A1 postemergence, blackgrass; conditions: Postemergence, 0 to 100 scale (0 no effect, 100 complete control)
Method in brief: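 Plants were grown in a loam soil/sand blend, with test chemicals formulated in a non-phytotoxic solvent mixture containing surfactant. Preemergence treatment (corn) was a directed soil spray at planting. Postemergence treatment was applied to plants 2 to 10 cm tall at the one- to two-leaf stage.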

[8] = 31 g ai/ha, 0 to 100 scale (0 no effect, 100 complete control)
[9] = 125 g ai/ha, 0 to 100 scale, 0 no effect, 100 complete control
[10] = 31 g ai/ha, 0 to 100 scale (0 no effect, 100 complete control), 10 days

| SMILES | Plant response rating, Soybean (soybean (Glycine max); [8]) | Plant response rating, Soybean (soybean (Glycine max); [9]) | Plant response rating, Oat, Wild [1, 8] | Plant response rating, Oat, Wild [1, 9] | Plant response rating, Pigweed, Palmer [2, 8] | Plant response rating, Pigweed, Palmer [2, 9] | Plant response rating, Barnyardgrass (0 to 100 scale, 0 is no effect, 100 is complete control) [3] | Plant response rating, Corn (corn (Zea mays); [10]) | Plant response rating, Corn (corn (Zea mays); 125 g ai/ha, 0 to 100 scale) | Plant response rating, Goosegrass [4, 8] | Plant response rating, Goosegrass [4, 9] | Plant response rating, Foxtail, Giant [5, 8] | Plant response rating, Foxtail, Giant [5, 9] | Plant response rating, Ducksalad (0 to 100 scale, 0 is no effect, 100 is complete control) [6] | Plant response rating, Blackgrass ([7]; 31 g ai/ha, 10 days) | Plant response rating, Blackgrass ([7]; 125 g ai/ha) |
| --- | --- | --- | --- | --- | --- | --- | --- | --- | --- | --- | --- | --- | --- | --- | --- | --- |
| CCOC(=O)N(c1cc(C(=O)N2CCC(F)(F)CC2)c(C)cc1C)S(=O)(=O)C(F)(F)F [Compound 351] | 20 | 30 | 10 | 30 | 80 | 90 | 90 | 0 | 70 | 40 | 100 | 30 | 100 | 70 | 0 | 80 |
| Cc1c(C(=O)N2CCCCC2)cc(N(COC(=O)C(C)(C)C)S(=O)(=O)C(F)(F)F)c(C)c1C [Compound 329, [[(Trifluoromethyl)sulfonyl][2,3,4-trimethyl-5-(1-piperidinylcarbonyl)phenyl]amino]methyl 2,2-dimethylpropanoate] | 0 | 0 | 0 | 0 | 10 | 50 | 95 | 0 | 0 | 20 | 100 | 30 | 50 | 60 | 0 | 30 |
| Cc1cc(C)c(N(COC(=O)OC(C)(C)C)S(=O)(=O)C(F)(F)F)cc1C1=NOC2CCCC12 (stereo not shown) [Compound 316] | 0 | 0 | 0 | 0 | 40 | 50 | 95 | 0 | 0 | 40 | 90 | 0 | 30 | 90 | 0 | 0 |
| Cc1cc(C)c(C2=NOC3(C)CCCC23)cc1NS(=O)(=O)C(F)(F)F (stereo not shown) [Compound 340] | 40 | 90 | 0 | 90 | 60 | 100 | 85 | 20 | 50 | 100 | 100 | 50 | 100 | 45 | 0 | 20 |
| Cc1c(C2=NO[C@@H]3CCC[C@H]23)cc(N(COC(=O)C(C)(C)C)S(=O)(=O)C(F)(F)F)c(C)c1C [Compound 336, [[(Trifluoromethyl)sulfonyl][2,3,4-trimethyl-5-[(3aR,6aR)-3a,5,6,6a-tetrahydro-4H-cyclopent[d]isoxazol-3-yl]phenyl]amino]methyl 2,2-dimethylpropanoate] | 0 | 0 | 0 | 20 | 60 | 100 | 95 | 0 | 0 | 30 | 70 | 20 | 80 | 75 | 0 | 0 |
| CCOC(=O)N(c1cc(C(=O)N2CCC(C)CC2)c(C)cc1C)S(=O)(=O)C(F)(F)F [Compound 354] | 30 | 70 | 0 | 0 | 10 | 50 | 90 | 0 | 0 | 70 | 100 | 80 | 100 | 60 | 0 | 0 |
| Cc1c(NS(=O)(=O)C(F)(F)F)cc(C2=NOC3CCCC23)c(C)c1C (stereo not shown) [Compound 335] | 30 | 40 | 0 | 30 | 100 | 100 | 95 | 0 | 0 | 30 | 70 | 60 | 100 | 70 | 0 | 10 |
| C#CCN(C)C(=O)c1cc(N(COC(=O)C(C)(C)C)S(=O)(=O)C(F)(F)F)c(C)c(C)c1C [Compound 371] | 0 | 60 | 0 | 0 | 10 | 80 | 95 | 60 | 90 | 0 | 90 | 10 | 100 | 55 | 0 | 10 |
| Cc1cc(C)c(C2=NOC3COCC23)cc1NS(=O)(=O)C(F)(F)F (stereo not shown) [Compound 297] | 0 | 50 | 0 | 20 | 30 | 90 | 0 | 0 | 0 | 70 | 90 | 80 | 100 | 50 | 0 | 0 |
| Cc1cc(Br)c(C2=NOC3CCCC23)cc1NS(=O)(=O)C(F)(F)F (stereo not shown) [Compound 302] | 0 | 20 | 0 | 20 | 20 | 50 | 0 | 0 | 0 | 0 | 90 | 20 | 80 | 70 | 0 | 0 |
| C#CCN(C)C(=O)c1cc(NS(=O)(=O)C(F)(F)F)c(Cl)c(F)c1C [Compound 337] | 40 | 90 | 0 | 20 | 40 | 100 | 0 | 30 | 40 | 50 | 100 | 20 | 100 | 65 | 0 | 30 |
| Cc1cc(C)c(N(COC(=O)C(C)(C)C)S(=O)(=O)C(F)(F)F)cc1C(=O)N1CCOCC1 [Compound 362] | 10 | 40 | 0 | 30 | 10 | 80 | 95 | 0 | 40 | 90 | 100 | 20 | 90 | 50 | 0 | 50 |
| Cc1c(NS(=O)(=O)C(F)(F)F)cc(C(=O)N2CC(C)OC(C)C2)c(C)c1C (stereo not shown) [Compound 327] | 30 | 90 | 0 | 70 | 90 | 90 | 30 | 10 | 40 | 50 | 90 | 100 | 100 | 85 | 0 | 0 |
